# Laboratory results: publication PMC11491004, “CHF6523 data suggest that the phosphoinositide 3-kinase delta isoform is not a suitable target for the management of COPD” (Respiratory Research, 2024)
# Key:
# [1] = Forced oscillation and slow vital capacity manoeuvres; assay type: in vivo, human; settings: Day 28
# Protocol: (§1) All assessment timings were based on the morning dose. Pre-dose on Days 1 and 28 of each treatment period, blood samples were taken for pharmacokinetic analyses, followed by forced oscillation (including slow vital capacity manoeuvres for inspiratory capacity [IC] and vital capacity [VC]), spirometry (forced expiratory volume in 1 s [FEV1] and forced vital capacity [FVC]), and the COPD Assessment Test (CAT). Blood samples were also taken up to 12 h post-dose on Days 1 and 28 for pharmacokinetic analyses, with blood samples for biomarker assessment pre-dose on Day 1 and 2 h post-dose on Day 28, and spirometry pre-dose on Days 20 and 24. Sputum was induced prior to each treatment period for baseline determination of biomarkers, and post-dose on Day 20 for collection of phosphatidylinositol (3,4,5)-trisphosphate (PIP3), and on Days 24 and 28 for collection of biomarkers.
# (§2) Fold-change from baseline in cell counts, target biomarkers in sputum and blood, and PIP3 were log-transformed and analysed using an analysis of covariance (ANCOVA) model, with treatment, patient, and period as fixed effects, and baseline value as covariate. Changes from baseline in spirometry, forced oscillation and CAT endpoints were analysed using a similar ANCOVA model, but without log transformation. Rescue medication data were analysed using an analysis of variance model, including treatment, period and patient as fixed effects. Other data, including the proportion of days on which patients coughed and the cough VAS results, are presented descriptively only. Further details, including the transcriptomics, mass-spectrometry and Olink proteomics, bioinformatics and multi-omic data integration are in the supplement.
# The Resmon PRO FULL device (MGC Diagnostics/Medisoft, St Paul, MN, USA) was used to evaluate the forced oscillometry endpoints. Patients in a sitting position and with their nose clipped supported their cheeks to reduce upper airway shunting while small amplitude pressure stimuli were applied during tidal breathing, with each manoeuvre performed in triplicate. The response of the respiratory system to this stimulation was used to derive respiratory mechanical impedance (Zrs), which comprises resistance (Rrs) and reactance (Xrs). In addition, the small amplitude pressure stimuli was also applied during execution of an expiratory slow vital capacity manoeuvre (SVC) to record inspiratory capacity (IC) and vital capacity (VC).
# Central and peripheral airway mechanics were measured using a multi frequency stimulating waveform at 5, 11, and 19 Hz, to derive the following: […]
# [2] = COPD Assessment Test and rescue medication use; assay type: in vivo, human
# Protocol: as §1, §2
structure (smiles),measurement,setting,value
C[C@@H](c1oc(=O)c2ccccc2c1-c1cccc(CN2CCN(C)CC2)c1)n1nc(-c2cncc(O)c2)c2c(N)ncnc21 [CHF6523],"Breaths where expiratory flow limitation was present, adjusted mean change from baseline (95% CI)",[1],"4.960 (–2.008, 11.928) %"
same,"Breaths where expiratory flow limitation was present, adjusted mean difference CHF6523 vs placebo (95% CI)",[1],"6.482 (–3.182, 16.145); p=0.179%"
same,"Inspiratory capacity, adjusted mean change from baseline (95% CI)",[1],"–0.175 (–0.264, –0.085) (N=26) L"
same,"Inspiratory capacity, adjusted mean difference CHF6523 vs placebo (95% CI)",[1],"–0.062 (–0.191, 0.066); p=0.320 L"
same,"Mean inspiratory flow, adjusted mean change from baseline (95% CI)",[1],"0.023 (0.006, 0.041) L/sec"
same,"Reactance at 5 Hz, expiratory, adjusted mean change from baseline (95% CI)",[1],"–0.336 (–0.801, 0.130) cmH2O/L/sec"
same,"Reactance at 5 Hz, expiratory, adjusted mean difference CHF6523 vs placebo (95% CI)",[1],"–0.284 (–0.919, 0.351); p=0.365 cmH2O/L/sec"
same,"Reactance at 5 Hz, inspiratory, adjusted mean change from baseline (95% CI)",[1],"–0.119 (–0.307, 0.068) cmH2O/L/sec"
same,"Reactance at 5 Hz, inspiratory, adjusted mean difference CHF6523 vs placebo (95% CI)",[1],"–0.141 (–0.399, 0.117); p=0.272 cmH2O/L/sec"
same,"Reactance at 5 Hz, total, adjusted mean change from baseline (95% CI)",[1],"–0.263 (–0.623, 0.097) cmH2O/L/sec"
same,"Reactance at 5 Hz, total, adjusted mean difference CHF6523 vs placebo (95% CI)",[1],"–0.237 (–0.729, 0.256); p=0.332 cmH2O/L/sec"
same,"Reactance at 19 Hz, expiratory, adjusted mean change from baseline (95% CI)",[1],"–0.025 (–0.226, 0.177) cmH2O/L/sec"
same,"Reactance at 19 Hz, expiratory, adjusted mean difference CHF6523 vs placebo (95% CI)",[1],"0.079 (–0.198, 0.357); p=0.563 cmH2O/L/sec"
same,"Reactance at 19 Hz, inspiratory, adjusted mean change from baseline (95% CI)",[1],"–0.113 (–0.257, 0.031) cmH2O/L/sec"
same,"Reactance at 19 Hz, inspiratory, adjusted mean difference CHF6523 vs placebo (95% CI)",[1],"–0.072 (–0.270, 0.127); p=0.464 cmH2O/L/sec"
same,"Reactance at 19 Hz, total, adjusted mean change from baseline (95% CI)",[1],"–0.058 (–0.229, 0.112) cmH2O/L/sec"
same,"Reactance at 19 Hz, total, adjusted mean difference CHF6523 vs placebo (95% CI)",[1],"0.027 (–0.208, 0.262); p=0.814 cmH2O/L/sec"
same,"Resistance at 5 Hz minus resistance at 19 Hz, expiratory, adjusted mean change from baseline (95% CI)",[1],"0.112 (–0.080, 0.305) cmH2O/L/sec"
same,"Resistance at 5 Hz minus resistance at 19 Hz, expiratory, adjusted mean difference CHF6523 vs placebo (95% CI)",[1],"–0.112 (–0.377, 0.153); p=0.392 cmH2O/L/sec"
same,"Resistance at 5 Hz minus resistance at 19 Hz, inspiratory, adjusted mean change from baseline (95% CI)",[1],"0.198 (0.075, 0.321) cmH2O/L/sec"
same,"Resistance at 5 Hz minus resistance at 19 Hz, inspiratory, adjusted mean difference CHF6523 vs placebo (95% CI)",[1],"0.147 (–0.022, 0.317); p=0.085 cmH2O/L/sec"
same,"Resistance at 5 Hz minus resistance at 19 Hz, total, adjusted mean change from baseline (95% CI)",[1],"0.158 (0.018, 0.299) cmH2O/L/sec"
same,"Resistance at 5 Hz minus resistance at 19 Hz, total, adjusted mean difference CHF6523 vs placebo (95% CI)",[1],"–0.008 (–0.203, 0.186); p=0.929 cmH2O/L/sec"
same,"Resistance at 5 Hz, expiratory, adjusted mean change from baseline (95% CI)",[1],"0.112 (–0.149, 0.373) cmH2O/L/sec"
same,"Resistance at 5 Hz, expiratory, adjusted mean difference CHF6523 vs placebo (95% CI)",[1],"–0.118 (–0.485, 0.248); p=0.513 cmH2O/L/sec"
same,"Resistance at 5 Hz, inspiratory, adjusted mean change from baseline (95% CI)",[1],"0.216 (0.066, 0.366) cmH2O/L/sec"
same,"Resistance at 5 Hz, inspiratory, adjusted mean difference CHF6523 vs placebo (95% CI)",[1],"0.057 (–0.150, 0.264); p=0.574 cmH2O/L/sec"
same,"Resistance at 5 Hz, total, adjusted mean change from baseline (95% CI)",[1],"0.172 (–0.013, 0.356) cmH2O/L/sec"
same,"Resistance at 5 Hz, total, adjusted mean difference CHF6523 vs placebo (95% CI)",[1],"–0.051 (–0.309, 0.207); p=0.686 cmH2O/L/sec"
same,"Resistance at 19 Hz, expiratory, adjusted mean change from baseline (95% CI)",[1],"–0.002 (–0.179, 0.176) cmH2O/L/sec"
same,"Resistance at 19 Hz, expiratory, adjusted mean difference CHF6523 vs placebo (95% CI)",[1],"–0.009 (–0.261, 0.242); p=0.939 cmH2O/L/sec"
same,"Resistance at 19 Hz, inspiratory, adjusted mean change from baseline (95% CI)",[1],"0.021 (–0.094, 0.136) cmH2O/L/sec"
same,"Resistance at 19 Hz, inspiratory, adjusted mean difference CHF6523 vs placebo (95% CI)",[1],"–0.086 (–0.245, 0.072); p=0.272 cmH2O/L/sec"
same,"Resistance at 19 Hz, total, adjusted mean change from baseline (95% CI)",[1],"0.016 (–0.125, 0.156) cmH2O/L/sec"
same,"Resistance at 19 Hz, total, adjusted mean difference CHF6523 vs placebo (95% CI)",[1],"–0.040 (–0.236, 0.157); p=0.683 cmH2O/L/sec"
same,"Resonance frequency, adjusted mean change from baseline (95% CI)",[1],"0.167 (–0.960, 1.293) Hz"
same,"Resonance frequency, adjusted mean difference CHF6523 vs placebo (95% CI)",[1],"0.106 (–1.434, 1.646); 0.888 Hz"
same,"Respiratory rate, adjusted mean change from baseline (95% CI)",[1],"0.268 (–0.359, 0.895) breaths/min"
same,"Respiratory rate, adjusted mean difference CHF6523 vs placebo (95% CI)",[1],"0.784 (–0.078, 1.646); 0.073 breaths/min"
same,"Tidal expiratory flow limitation, adjusted mean change from baseline (95% CI)",[1],"0.214 (–0.130, 0.557) cmH2O/L/sec"
same,"Tidal expiratory flow limitation, adjusted mean difference CHF6523 vs placebo (95% CI)",[1],"0.111 (–0.359, 0.582); p=0.630 cmH2O/L/sec"
same,"Tidal volume, adjusted mean change from baseline (95% CI)",[1],"0.003 (–0.029, 0.036) L"
same,"Tidal volume, adjusted mean difference CHF6523 vs placebo (95% CI)",[1],"0.011 (–0.034, 0.056); p=0.620 L"
same,"Vital capacity, adjusted mean change from baseline (95% CI)",[1],"–0.083 (–0.243, 0.076) (N=26) L"
same,"Vital capacity, adjusted mean difference CHF6523 vs placebo (95% CI)",[1],"–0.018 (–0.243, 0.207); p=0.871 L"
same,CHF6523–placebo difference in inspiratory flow,[1]; p=0.015,29 mL/s
same,"Mean inspiratory flow, adjusted mean difference CHF6523 vs placebo (95% CI)",[1]; p=0.015,"0.029 (0.006, 0.052); p=0.015 L/sec"
same,"Rescue medication use, adjusted mean (95% CI)",[2]; 28-day treatment period,"1.69 (1.40, 1.99) Puffs/day"
same,"Rescue medication use, adjusted mean difference CHF6523 vs placebo (95% CI)",[2]; 28-day treatment period,"0.28 (–0.14, 0.70); p=0.190 Puffs/day"
same,"Rescue medication use: days with no use, adjusted mean (95% CI)",[2]; 28-day treatment period,"49.0 (40.3, 57.7) %"
same,"Rescue medication use: days with no use, adjusted mean difference CHF6523 vs placebo (95% CI)",[2]; 28-day treatment period,"–5.7 (–17.9, 6.6); p=0.354%"
same,"COPD Assessment Test total score, adjusted mean difference CHF6523 vs placebo (95% CI)",[2]; Day 28,"0.6 (–0.7, 2.0); p=0.340"
